Laboratory results: US9266904B2, “6-bridged heteroaryldihydropyrimidines for the treatment and prophylaxis of hepatitis B virus infection” (priority 2013, dated 2016)
≈ marks a conversion by molar mass, not a printed value. Where two headings read alike, the source gives them in different places.

What was measured:
[1] = Lyophilisation solubility assay (Lysa); assay type: physicochemical; conditions: thermodynamic from solid
Summary of the method: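 DMSO was evaporated from 10 mM stocks, and residues were taken up in 0.05 M phosphate buffer pH 6.5, stirred 1 h, shaken 2 h and left overnight. Filtrates were quantified by UV or HPLC-UV against a four-point calibration, in duplicate. Values are in μg/ml, with a lower-bound value when >80% dissolved.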

[2] = test system: HBV replication in HepG2.2.15 cells; assay: Anti-HBV activity in vitro in HepG2.2.15 cells (extracellular HBV DNA by qPCR); assay type: cell-based; conditions: Hepatitis B virus, HepG2.2.15, Anti-HBV activity in HepG2.2.15 cells; read-out: EC50
Summary of the method: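 EC50 is derived from qPCR of extracellular viral DNA in culture supernatant after 5-day compound exposure. Cells (HepG2.2.15, stably carrying the HBV genome) were plated and incubated overnight at 37 °C before half-log dilution series were added at 0.5% final DMSO.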

[3] = Human microsomal clearance assay; assay type: in vitro ADME; conditions: human, 1 μM, pH 7.4
Summary of the method: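 Liver microsomes (0.5 mg/mL protein) were incubated with 1 μM compound at 37 °C, pH 7.4 phosphate, with an NADPH-regenerating system. Samples at 0-30 min were quenched and measured by LC-MS/MS for parent loss. No-NADPH controls were included.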

HepDE19 cells = assay: Cytotoxicity (CCK-8 cell viability) and selectivity index; assay type: cell-based, human; conditions: CC50 value/EC50 value
Excerpt: (§1) HepG2.2.15 and HepDE19 are stably-transfected cell lines containing the HBV genome. Both cell lines are derived from the hepatoblastoma cell line Hep G2 (American Type Culture Collection, ATCC® HB-8065™) by the published procedures described in references: M A Selles et al. Proc. Natl. Acad. Sci. USA 1987, 84, 1005-1009 and H Guo et al. Journal of Virology 2007, 81, 12472-12484, respectively. Both cell lines were maintained in Dulbecco's modified Eagle's medium (DMEM)-F12 medium supplemented with 10% fetal bovine serum, 100 U/mL penicillin, 100 μg/mL streptomycin, and 0.5 mg/mL of G418.
(§2) In a cell culture model, apparent antiviral activity of a compound can be the result of host cell death after exposure to the compound. To determine whether the anti-HBV effect of a test compound is due to cytotoxicity, HepDE19 cells were seeded into 96-well plates (5×10^3 cells per well) and treated with compounds as described above for EC50 determination. Five days after treatment, cell viability was measured by addition of 20 μL of CCK-8 reagent. Two hours after incubation at 37° C., the absorbance at wavelengths of 450 nm and 630 nm (OD450 and OD630) was recorded by a plate reader. The concentration results in the death of 50% of the host cells (CC50) of each compound was determined (See Table 5).

[4] = as above; assay type: cell-based, human; conditions: human, HepDE19 cells; cytotoxicity, concentration resulting in death of 50% of host cells
Excerpt: as §1, §2

`COC(=O)C1=C(CN2C3CC(F)(F)C2C[C@@](O)(CC(=O)O)C3)NC(c2nccs2)=N[C@@H]1c1ccc(F)c(F)c1C` (single isomer, unassigned) [Example 118] gave a solubility thermodynamic ([1]; pH 6.5, aqueous buffer) of 0.112 mg/mL (≈ 192 µM), an EC50 [2] of 0.005 µM and a CLh [3] of 0.186 L/h/kg. The “Selectivity index (CC50/EC50)” value (HepDE19 cells) was 8960 and the CC50 at 5 days [4] was 45 µM.
Work on `CCOC(=O)C1=C(CN2[C@@H]3COC[C@H]2C[C@@H](CC(=O)O)C3)NC(c2nccs2)=N[C@H]1c1cccc(F)c1Cl` [Example 65, Endo-2-[(1S,5R)-9-[[(4R)-4-(2-chloro-3-fluoro-phenyl)-5-ethoxycarbonyl-2-thiazol-2-yl-1,4-dihydropyrimidin-6-yl]methyl]-3-oxa-9-azabicyclo[3.3.1]nonan-7-yl]acetic acid] yielded a solubility thermodynamic ([1]; pH 6.5, aqueous buffer) of 0.375 mg/mL (≈ 666 µM), an EC50 [2] of 0.0118 µM and a CLh [3] of 0.168 L/h/kg. The “Selectivity index (CC50/EC50)” value (HepDE19 cells) was 5980 and the CC50 at 5 days [4] was 71 µM.
With `COC(=O)C1=C(CN2C3CC(F)(F)C2C[C@@](O)(CC(=O)O)C3)NC(c2nccs2)=N[C@H]1c1ccc(F)cc1Cl` (single isomer, unassigned) [Example 116] the solubility thermodynamic ([1]; pH 6.5, aqueous buffer) was 0.495 mg/mL (≈ 846 µM), the EC50 [2] was 0.0073 µM and the CLh [3] was 0.156 L/h/kg. The “Selectivity index (CC50/EC50)” value (HepDE19 cells) was >13699 and the CC50 at 5 days [4] was > 100 µM.
`COC(=O)C1=C(CN2C3CC(F)(F)C2C[C@@](O)(CC(=O)O)C3)NC(c2nccs2)=N[C@H]1c1cccc(F)c1Cl` (single isomer, unassigned) [Example 120] gave a solubility thermodynamic ([1]; pH 6.5, aqueous buffer) of 0.317 mg/mL (≈ 542 µM), an EC50 [2] of 0.0096 µM and a CLh [3] of 0 L/h/kg. For the same compound, the “Selectivity index (CC50/EC50)” value (HepDE19 cells) was 9083 and the CC50 at 5 days [4] was 87 µM.
With `CCOC(=O)C1=C(CN2[C@@H]3COC[C@H]2C[C@H](CC(=O)O)C3)NC(c2nccs2)=N[C@H]1c1ccccc1Br` [Example 77, Exo-2-[(1S,5R)-9-[[(4R)-4-(2-bromophenyl)-5-ethoxycarbonyl-2-thiazol-2-yl-1,4-dihydropyrimidin-6-yl]methyl]-3-oxa-9-azabicyclo[3.3.1]nonan-7-yl]acetic acid] the solubility thermodynamic ([1]; pH 6.5, aqueous buffer) was 0.491 mg/mL (≈ 833 µM), the EC50 [2] was 0.014 µM and the CLh [3] was 0.078 L/h/kg. For the same compound, the “Selectivity index (CC50/EC50)” value (HepDE19 cells) was >7143 and the CC50 at 5 days [4] was > 100 µM.
For `COC(=O)C1=C(CN2C3COCC2CN(C(N)=O)C3)NC(c2nccs2)=N[C@H]1c1ccc(F)cc1Br` [Example 54, Methyl (4R)-4-(2-bromo-4-fluoro-phenyl)-6-[(7-carbamoyl-3-oxa-7,9-diazabicyclo[3.3.1]nonan-9-yl)methyl]-2-thiazol-2-yl-1,4-dihydropyrimidine-5-carboxylate], the solubility thermodynamic ([1]; pH 6.5, aqueous buffer) was 0.119 mg/mL (≈ 205 µM), the EC50 [2] was 0.0082 µM and the CLh [3] was 0.39 L/h/kg. For the same compound, the “Selectivity index (CC50/EC50)” value (HepDE19 cells) was 7300 and the CC50 at 5 days [4] was 60 µM.
Work on `COC(=O)C1=C(CN2[C@H]3COC[C@@H]2[C@H](CC(=O)O)C3)NC(c2nccs2)=N[C@H]1c1ccc(F)cc1Br` [Example 64, 2-[(1R,5S,6S)-8-[[(4R)-4-(2-bromo-4-fluoro-phenyl)-5-methoxycarbonyl-2-thiazol-2-yl-1,4-dihydropyrimidin-6-yl]methyl]-3-oxa-8-azabicyclo[3.2.1]octan-6-yl]acetic acid] yielded a solubility thermodynamic ([1]; pH 6.5, aqueous buffer) of 0.66 mg/mL (≈ 1140 µM), an EC50 [2] of 0.0166 µM and a CLh [3] of 0.156 L/h/kg. For the same compound, the “Selectivity index (CC50/EC50)” value (HepDE19 cells) was >6024 and the CC50 at 5 days [4] was > 100 µM.
With `COC(=O)C1=C(CN2CC3(CNC(C)=O)CC2CO3)NC(c2nccs2)=N[C@H]1c1ccc(F)cc1Cl` (stereo partly drawn) [Example 145, Methyl (4R)-6-[[4-(acetamidomethyl)-5-oxa-2-azabicyclo[2.2.1]heptan-2-yl]methyl]-4-(2-chloro-4-fluoro-phenyl)-2-thiazol-2-yl-1,4-dihydropyrimidine-5-carboxylate] the solubility thermodynamic ([1]; aqueous buffer, 0.05 M phosphate buffer (pH 6.5), reported as bigger than the value if more than 80% of the sample is in solution, read-out: Lysa) was 0.585 mg/mL (≈ 1100 µM), the EC50 [2] was 0.017 µM and the “Selectivity index (CC50/EC50)” value (HepDE19 cells) was >5882. For the same compound, the CC50 at 5 days [4] was > 100 µM.
